Laboratory results taken from patent publication US7968595B2, “Substituted 4-aryl-chromene as activator of caspases and inducer of apoptosis and as antivascular agent and the use thereof” (Cytovia, Inc., priority 2006, dated 2011).

Columns and labels:
H1299 = experiment: Caspase activation assay in H1299 cells; assay type: cell-based; settings: Homo sapiens, NCI-H1299, 24 h incubation, read-out: Caspase activation potency EC50 H1299
Method: (§1) Human breast cancer cell lines T-47D and ZR-75-1, human colon cancer cell line DLD-1 and human non-small cell lung cancer cell line H1299 were grown according to media component mixtures designated by American Type Culture Collection+10% FCS (Invitrogen Corporation), in a 5% CO2−95% humidity incubator at 37° C. T-47D and ZR-75-1 cells were maintained at a cell density between 30 and 80% confluency at a cell density of 0.1 to 0.6×10^6 cells/mL. Cells were harvested at 600×g and resuspended at 0.65×10^6 cells/mL into appropriate media+10% FCS. An aliquot of […] of cells was added to a well of a 96-well microtiter plate containing 5 μl of a 10% DMSO in RPMI-1640 media solution containing about 0.16 to 10 μM of 2,7,8-triamino-4-(3-bromo-4,5-dimethoxy-phenyl)-3-cyano-4H-chromene (1) or other test compounds (0.016 to 1 μM final). An aliquot of 45 μl of cells was added to a well of a 96-well microtiter plate containing 5 μl of a 10% DMSO in RPMI-1640 media solution without test compound as the control sample. The samples were mixed by agitation and then incubated at 37° C. for 24 h in a 5% CO2−95% humidity incubator. After incubation, the samples were removed from the incubator and 50 μl of a solution containing 20 μM of N-(Ac-DEVD)-N′-ethoxycarbonyl-R110 (SEQ ID No:1) fluorogenic substrate (Cytovia, Inc.; U.S. Pat. No. 6,335,429), 20% sucrose (Sigma), 20 mM DTT (Sigma), 200 mM NaCl (Sigma), 40 mM Na PIPES buffer pH 7.2 (Sigma), and 500 μg/ml lysolecithin (Calbiochem) was added. The samples were mixed by agitation and incubated at room temperature. Using a fluorescent plate reader (Model 1420 Wallac Instruments), an initial reading (T=0) was made about 1-2 min after addition of the substrate solution, employing excitation at 485 nm and emission at 530 nm, to determine the background fluorescence of the control sample. After the 3 h incubation, the samples were read for fluorescence as above (T=3 h).
(§2) The Relative Fluorescence Unit values (RFU) were used to calculate the sample readings as follows: RFU(T=3h)−Control RFU(T=0)=Net RFU(T=3h)
(§3) The activity of caspase cascade activation was determined by the ratio of the net RFU value for 2,7,8-triamino-4-(3-bromo-4,5-dimethoxy-phenyl)-3-cyano-4H-chromene or other test compound to that of control samples. The EC50 (nM) was determined by a sigmoidal dose-response calculation (Prism 2.0, GraphPad Software Inc.).

T-47D = experiment: Caspase activation assay in T-47D cells; assay type: cell-based; settings: Homo sapiens; T47D cells, 24 h incubation; read-out: Caspase activation potency EC50 T47D
Method: as §1, §2, §3

ZR-75-1 = experiment: Caspase activation assay in ZR-75-1 cells; assay type: cell-based; settings: Homo sapiens, ZR751 cells, 24 h incubation, read-out: Caspase activation potency EC50 ZR751
Method: as §1, with “After incubation, the samples were removed from the incubator and 50 μl of a solution containing 20 μM of N-(Ac-DEVD)-N′-ethoxycarbonyl-R110 (SEQ ID No:1) fluorogenic substrate (Cytovia, Inc.; U.S. Pat. No. 6,335,429), 20% sucrose (Sigma), 20 mM DTT (Sigma), 200 mM NaCl (Sigma), 40 mM Na PIPES buffer pH 7.2 (Sigma), and 500 μg/ml lysolecithin (Calbiochem) was added. The samples were mixed by agitation and incubated at room temperature.” left out
as §2, §3

solid tumor cells = experiment: Caspase cascade activation and induction of apoptosis, overall statement; assay type: cell-based, human; settings: summary of Table I
Method: as §1, with “After incubation, the samples were removed from the incubator and 50 μl of a solution containing 20 μM of N-(Ac-DEVD)-N′-ethoxycarbonyl-R110 (SEQ ID No:1) fluorogenic substrate (Cytovia, Inc.; U.S. Pat. No. 6,335,429), 20% sucrose (Sigma), 20 mM DTT (Sigma), 200 mM NaCl (Sigma), 40 mM Na PIPES buffer pH 7.2 (Sigma), and 500 μg/ml lysolecithin (Calbiochem) was added. The samples were mixed by agitation and incubated at room temperature.” left out
as §3

DLD-1 = experiment: Caspase activation assay in DLD-1 cells; assay type: cell-based; settings: Homo sapiens, 24 h incubation, read-out: Caspase activation potency EC50 DLD-1
Method: as §1, with “After incubation, the samples were removed from the incubator and 50 μl of a solution containing 20 μM of N-(Ac-DEVD)-N′-ethoxycarbonyl-R110 (SEQ ID No:1) fluorogenic substrate (Cytovia, Inc.; U.S. Pat. No. 6,335,429), 20% sucrose (Sigma), 20 mM DTT (Sigma), 200 mM NaCl (Sigma), 40 mM Na PIPES buffer pH 7.2 (Sigma), and 500 μg/ml lysolecithin (Calbiochem) was added. The samples were mixed by agitation and incubated at room temperature.” left out
as §2, §3

[1] = tested on: MX1 human breast cancer tumors; experiment: In vivo antitumor activity in MX-1 model, combination with cisplatin and doxorubicin; set-up: species or system mice
Method: MX1 human breast cancer tumors were obtained from the NCI-FCRDC and maintained as tumors in nude mice. Tumor bits were implanted with a trocar into the right mammary area of female nu/nu mice and allowed to grow to an average size of 200-250 mg, about 12 days after being implanted. Animals were randomized and assigned to study groups of 8-10 animals/group. Body weight were determined and tumor size were measured by calipers and converted to volume by the standard formula of Vol=L×W^2/2. Compound 1R was formulated in 7% PEG400/9% Tween80/84% D5W and administered IV via the tail vein at the indicated days and doses. Day 1 of the study was the first day of treatment. Survival time was the number of days for the tumor to reach 1000 mg or death, whichever occurred earliest. Median survival is the median for the group.
Mice implanted with MX1 human breast cancer tumors were treated with compound 1R as described in EXAMPLE 11. Cisplatin was administered IP whereas doxorubicin was administered IV at the indicated doses.

[2] = doxorubicin 2 mg/kg, day 2, 9, IV
[3] = cisplatin 2 mg/kg, day 2, 9, IP

Row | Compound | EC50 (H1299) | EC50 (T-47D) | further results
1 | COc1cc([C@H]2C(C#N)=C(N)Oc3c2ccc(NC(=O)CNC(=O)OCC2c4ccccc4-c4ccccc42)c3N)cc(Br)c1OC [Compound 5, (9H-fluoren-9-yl)methyl((R)-2,8-diamino-4-(3-bromo-4,5-dimethoxyphenyl)-3-cyano-4H-chromen-7-ylcarbamoyl)methylcarbamate] |  | 2440 nM | 
2 | COc1cc(C2C(C#N)=C(N)Oc3c2ccc(NC(=O)C2CCCN2)c3N)cc(Br)c1OC (stereo not shown) [Compound E] | 5330 nM | 3900 nM | 
3 | COc1cc([C@@H]2C(C#N)=C(N)Oc3c2ccc(N)c3N)cc(Br)c1OC [Compound 1S, S(+)-2,7,8-triamino-4-(3-bromo-4,5-dimethoxy-phenyl)-3-cyano-4H-chromene] | 3210 nM | 2490 nM | EC50 (ZR-75-1): 2010 nM; Caspase cascade activator and inducer of apoptosis (in words) (solid tumor cells): inactive isomer; EC50 (DLD-1): 4570 nM
4 | COc1cccc2c1C(=O)c1c(O)c3c(c(O)c1C2=O)C[C@@](O)(C(=O)CO)C[C@@H]3O[C@H]1C[C@H](N)[C@H](O)[C@H](C)O1 [Doxorubicin, reference compound] |  |  | Median survival [1, 2]: 11 days; Number of tumor free mice at day 91 [1, 2]: 0 of 9
5 | N.N.[Cl][Pt][Cl] [Cisplatin, reference compound] |  |  | Median survival [1, 3]: 27 days; Number of tumor free mice at day 91 [1, 3]: 1 of 7; Median survival ([1]; cisplatin 2 mg/kg, day 2, IP): 11 days; Number of tumor free mice at day 91 ([1]; cisplatin 2 mg/kg, day 2, IP): 0 of 9
6 | COc1cc(C2C(C#N)=C(N)Oc3c2ccc(NC(=O)C(N)COC(C)=O)c3N)cc(Br)c1OC (stereo not shown) [F] | 5670 nM | 4120 nM | 
7 | COc1cc([C@H]2C(C#N)=C(N)Oc3c2ccc(NC(=O)[C@H](C)NC(=O)OCC2c4ccccc4-c4ccccc42)c3N)cc(Br)c1OC [Compound 3, (9H-fluoren-9-yl)methyl(S)-1-((R)-2,8-diamino-3-cyano-4-(3-bromo-4,5-dimethoxyphenyl)-4H-chromen-7-ylcarbamoyl)ethylcarbamate] |  | 2880 nM | 
8 | COc1cc(C2C(C#N)=C(N)Oc3c2ccc(N)c3N)cc(Br)c1OC (racemic) [Compound 1, 2,7,8-Triamino-4-(3-bromo-4,5-dimethoxy-phenyl)-3-cyano-4H-chromene] | 120 nM | 42 nM | EC50 (ZR-75-1): 35 nM; EC50 (DLD-1): 78 nM
9 | COc1cc(C2C(C#N)=C(N)Oc3c2ccc(NC(=O)[C@H](N)CCCCN)c3N)cc(Br)c1OC (stereo partly shown) [G] | 3750 nM | 1420 nM | 
10 | COc1cc(C2C(C#N)=C(N)Oc3c2ccc(NC(=O)CN(C)C)c3N)cc(Br)c1OC (stereo not shown) [A] | 3340 nM | 2540 nM | 

Now from value to compound, other results behind:

Row | EC50 (H1299) | EC50 (T-47D) | Compound | further results
11 | 273 nM | 160 nM | COc1cc(C2C(C#N)=C(N)Oc3c2ccc(NC(=O)CN)c3N)cc(Br)c1OC (stereo not shown) [C] | 
12 |  | 60 nM | COc1cc([C@H]2C(C#N)=C(N)Oc3c2ccc(NC(=O)CN)c3N)cc(Br)c1OC [Compound 6, 2-Amino-N—((R)-2,8-diamino-4-(3-bromo-4,5-dimethoxyphenyl)-3-cyano-4H-chromen-7-yl)acetamide] | 
13 | 5780 nM | 5500 nM | COc1cc(C2C(C#N)=C(N)Oc3c2ccc(NC(=O)CCCN)c3N)cc(Br)c1OC (stereo not shown) [B] | 
14 | > 10000 nM | > 10000 nM | COc1cc(C2C(C#N)=C(N)Oc3c2ccc(NC(=O)C[N+](C)(C)C)c3N)cc(Br)c1OC (stereo not shown) [D] | 
15 |  | 52 nM | COc1cc([C@H]2C(C#N)=C(N)Oc3c2ccc(NC(=O)[C@H](C)N)c3N)cc(Br)c1OC [Compound 4, (2S)-2-Amino-N—((R)-2,8-diamino-4-(3-bromo-4,5-dimethoxyphenyl)-3-cyano-4H-chromen-7-yl)propanamide] | Caspase cascade activator and inducer of apoptosis (in words) (solid tumor cells): potent caspase cascade activator and inducer of apoptosis
